Source: patent publication US9796711B2, “Substituted pyrazolo[3,4-b]pyridin-6-carboxylic acids and method of use” (AbbVie S.àr.l., priority 2015, dated 2017)

How the values were obtained:
[1] = biological target: T1, ΔF508-CFTR (Homo sapiens, UniProt P13569, DEL508-508); assay: CFTR cell surface levels using HRP-tagged ΔF508-CFTR expressing CFBE cells, in the presence of a co-corrector; assay type: cell-based; details: HRP-tagged ΔF508-CFTR expressing CFBE cells, in the presence of 3 μM co-corrector; for EC50: read-out: EC50
T1 construct: host or cells: CFBE41o-, doxycycline-inducible
Summary of the method: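 Cells were seeded with 0.5 μg/mL doxycycline and held 68 h at 37 °C. Test compounds plus 3 μM co-corrector (final 0.1% DMSO) were then added for 20 h at 33 °C. Washed cells received HRP substrate, and luminescence was normalized between DMSO and 3 μM co-corrector controls.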

[2] = biological target: T1, ΔF508-CFTR; assay: CFTR cell surface levels using HRP-tagged ΔF508-CFTR expressing CFBE cells, intrinsic corrector capacity; assay type: cell-based; details: HRP-tagged ΔF508-CFTR CFBE41o- cells, compounds alone (intrinsic corrector capacity), 20 hours at 33° C.; for % Activation: positive control 3 μM corrector; for EC50: read-out: EC50
Summary of the method: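 Here the cells express ΔF508-CFTR with horseradish peroxidase inserted in extracellular loop 4, so only rescued channel at the surface gives luminescent signal. Compounds act on their own, 20 h at the reduced temperature of 33 °C; values are percent activity relative to DMSO and a 3 μM corrector.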

T1 sequence (P13569 with tags, fused parts or gaps DEL508-508): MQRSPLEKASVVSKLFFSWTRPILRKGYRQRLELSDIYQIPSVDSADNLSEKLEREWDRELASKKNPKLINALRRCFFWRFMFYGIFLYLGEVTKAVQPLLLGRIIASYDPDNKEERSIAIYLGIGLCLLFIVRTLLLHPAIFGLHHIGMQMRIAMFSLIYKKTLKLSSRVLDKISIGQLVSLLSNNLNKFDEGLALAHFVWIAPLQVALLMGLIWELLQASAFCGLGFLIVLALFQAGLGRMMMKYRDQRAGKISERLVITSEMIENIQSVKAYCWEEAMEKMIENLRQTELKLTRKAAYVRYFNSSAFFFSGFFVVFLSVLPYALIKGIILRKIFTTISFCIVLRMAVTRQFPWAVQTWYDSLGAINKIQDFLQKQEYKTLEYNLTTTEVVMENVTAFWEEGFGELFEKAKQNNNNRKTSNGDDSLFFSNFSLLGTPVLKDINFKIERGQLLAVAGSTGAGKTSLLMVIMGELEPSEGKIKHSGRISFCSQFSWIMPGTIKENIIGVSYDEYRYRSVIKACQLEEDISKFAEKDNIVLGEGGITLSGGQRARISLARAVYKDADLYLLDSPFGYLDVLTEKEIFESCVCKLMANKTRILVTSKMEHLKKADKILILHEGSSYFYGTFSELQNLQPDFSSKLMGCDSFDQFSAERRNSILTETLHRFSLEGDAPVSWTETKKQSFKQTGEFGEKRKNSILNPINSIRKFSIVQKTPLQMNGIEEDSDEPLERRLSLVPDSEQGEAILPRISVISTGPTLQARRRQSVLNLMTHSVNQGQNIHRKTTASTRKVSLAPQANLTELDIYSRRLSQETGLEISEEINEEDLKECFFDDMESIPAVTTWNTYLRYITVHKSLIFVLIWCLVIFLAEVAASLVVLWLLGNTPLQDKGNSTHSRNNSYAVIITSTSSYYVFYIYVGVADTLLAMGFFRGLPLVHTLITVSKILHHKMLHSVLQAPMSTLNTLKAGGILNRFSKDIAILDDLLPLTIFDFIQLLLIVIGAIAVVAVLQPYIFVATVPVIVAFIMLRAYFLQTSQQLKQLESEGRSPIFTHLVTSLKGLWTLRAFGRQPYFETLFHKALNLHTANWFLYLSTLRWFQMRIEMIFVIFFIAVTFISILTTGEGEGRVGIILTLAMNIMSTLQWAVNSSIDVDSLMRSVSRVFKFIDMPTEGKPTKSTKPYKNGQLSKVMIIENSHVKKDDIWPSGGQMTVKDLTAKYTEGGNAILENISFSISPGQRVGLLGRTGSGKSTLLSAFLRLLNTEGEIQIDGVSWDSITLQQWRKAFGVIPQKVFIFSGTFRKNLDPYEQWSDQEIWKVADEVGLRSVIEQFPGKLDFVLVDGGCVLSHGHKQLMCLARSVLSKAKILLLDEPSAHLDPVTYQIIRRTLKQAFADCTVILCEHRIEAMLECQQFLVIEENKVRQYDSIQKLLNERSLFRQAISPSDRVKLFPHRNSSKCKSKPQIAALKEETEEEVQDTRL

CC(C)c1nn(-c2cccc(N(C)C)c2)c2nc(C(=O)O)cc(-c3ccc(N4CCOCC4)nc3)c12 [compound 85, 1-[3-(dimethylamino)phenyl]-4-[6-(morpholin-4-yl)pyridin-3-yl]-3-(propan-2-yl)-1H-pyrazolo[3,4-b]pyridine-6-carboxylic acid]
% Activation [1]: 504.7% | EC50 [1]: 0.702 µM | % Activation [2]: 314.6% | EC50 [2]: 0.92 µM

COC(=O)N1CC(c2nn(-c3ccccc3)c3nc(C(=O)O)cc(-c4ccc(N5CCOCC5)cc4)c23)C1 [compound 86, 3-[1-(methoxycarbonyl)azetidin-3-yl]-4-[4-(morpholin-4-yl)phenyl]-1-phenyl-1H-pyrazolo[3,4-b]pyridine-6-carboxylic acid]
% Activation [1]: 300.25% | EC50 [1]: 2.55 µM | % Activation [2]: 129.75% | EC50 [2]: 3.34 µM

CN(C)Cc1nn(-c2ccccc2)c2nc(C(=O)O)cc(-c3ccc(N4CCOCC4)cc3)c12 [compound 87, 3-[(dimethylamino)methyl]-4-[4-(morpholin-4-yl)phenyl]-1-phenyl-1H-pyrazolo[3,4-b]pyridine-6-carboxylic acid]
% Activation [1]: 148.9% | EC50 [1]: 3.34 µM | % Activation [2]: 28.91% | EC50 [2]: > 10 µM

CC(C)c1nn(-c2cccc(N3CCOCC3)c2)c2nc(C(=O)O)cc(-c3cnc(N(C)C)nc3)c12 [compound 88, 4-[2-(dimethylamino)pyrimidin-5-yl]-1-[3-(morpholin-4-yl)phenyl]-3-(propan-2-yl)-1H-pyrazolo[3,4-b]pyridine-6-carboxylic acid]
% Activation [1]: 453.15% | EC50 [1]: 0.525 µM | % Activation [2]: 288.95% | EC50 [2]: 0.693 µM

Cc1nn(-c2cccc(N(C)C)c2)c2nc(C(=O)O)cc(-c3cnc(N4CCOCC4)nc3)c12 [compound 90, 1-[3-(dimethylamino)phenyl]-3-methyl-4-[2-(morpholin-4-yl)pyrimidin-5-yl]-1H-pyrazolo[3,4-b]pyridine-6-carboxylic acid]
% Activation [1]: 367.15% | EC50 [1]: 0.883 µM | % Activation [2]: 169.65% | EC50 [2]: 1.04 µM

CN(C)c1ncc(-c2cc(C(=O)O)nc3c2c(C(C)(C)C)nn3C2CCCC2)cn1 [compound 91, 3-tert-butyl-1-cyclopentyl-4-[2-(dimethylamino)pyrimidin-5-yl]-1H-pyrazolo[3,4-b]pyridine-6-carboxylic acid]
% Activation [1]: 176.6% | EC50 [1]: 3.34 µM | % Activation [2]: 43.54% | EC50 [2]: 3.34 µM

CC(C)(CO)c1nn(-c2ccccc2)c2nc(C(=O)O)cc(-c3ccc(N4CCOCC4)nc3)c12 [compound 92, 3-(1-hydroxy-2-methylpropan-2-yl)-4-[6-(morpholin-4-yl)pyridin-3-yl]-1-phenyl-1H-pyrazolo[3,4-b]pyridine-6-carboxylic acid]
% Activation [1]: 99.81% | EC50 [1]: > 10 µM | % Activation [2]: 2.873% | EC50 [2]: > 10 µM

CC(C)c1nn(C2CCCCC2)c2nc(C(=O)O)cc(-c3ccc(N(C)C)nc3)c12 [compound 93, 1-cyclohexyl-4-[6-(dimethylamino)pyridin-3-yl]-3-(propan-2-yl)-1H-pyrazolo[3,4-b]pyridine-6-carboxylic acid]
% Activation [1]: 379.57% | EC50 [1]: 0.491 µM | % Activation [2]: 175.6% | EC50 [2]: 0.68 µM

Cc1nn(-c2ccn(C)c(=O)c2)c2nc(C(=O)O)cc(-c3ccc(N4CCOCC4)cc3)c12 [compound 94, 3-methyl-1-(1-methyl-2-oxo-1,2-dihydropyridin-4-yl)-4-[4-(morpholin-4-yl)phenyl]-1H-pyrazolo[3,4-b]pyridine-6-carboxylic acid]
% Activation [1]: 119.4% | EC50 [1]: > 10 µM | % Activation [2]: 3.061% | EC50 [2]: > 10 µM

CC(C)c1nn(C2CCN(CC#N)CC2)c2nc(C(=O)O)cc(-c3ccc(N4CCOCC4)cc3)c12 [compound 95, 1-[1-(cyanomethyl)piperidin-4-yl]-4-[4-(morpholin-4-yl)phenyl]-3-(propan-2-yl)-1H-pyrazolo[3,4-b]pyridine-6-carboxylic acid]
% Activation [1]: 145.4% | EC50 [1]: 3.34 µM | % Activation [2]: 16.66% | EC50 [2]: > 10 µM

Cc1nn(-c2ccccc2)c2nc(C(=O)O)cc(-c3ccc(NC4CCC4)cc3)c12 [compound 96, 4-[4-(cyclobutylamino)phenyl]-3-methyl-1-phenyl-1H-pyrazolo[3,4-b]pyridine-6-carboxylic acid]
% Activation [1]: 329.75% | EC50 [1]: 1.2 µM | % Activation [2]: 141.5% | EC50 [2]: 1.53 µM

Cc1nn(-c2ccccc2)c2nc(C(=O)O)cc(-c3ccc(N4CC(F)(F)C4)cc3)c12 [compound 97, 4-[4-(3,3-difluoroazetidin-1-yl)phenyl]-3-methyl-1-phenyl-1H-pyrazolo[3,4-b]pyridine-6-carboxylic acid]
% Activation [1]: 268% | EC50 [1]: 1.16 µM | % Activation [2]: 96.51% | EC50 [2]: 1.53 µM

Cc1nn(-c2ccccc2)c2nc(C(=O)O)cc(-c3ccc(N4CCN(CC#N)CC4)cc3)c12 [compound 98, 4-{4-[4-(cyanomethyl)piperazin-1-yl]phenyl}-3-methyl-1-phenyl-1H-pyrazolo[3,4-b]pyridine-6-carboxylic acid]
% Activation [1]: 350.65% | EC50 [1]: 0.834 µM | % Activation [2]: 165.8% | EC50 [2]: 1.15 µM

Cc1nn(C2CCCCC2)c2nc(C(=O)O)cc(-c3ccc(N(C)C)nc3)c12 [compound 99, 1-cyclohexyl-4-[6-(dimethylamino)pyridin-3-yl]-3-methyl-1H-pyrazolo[3,4-b]pyridine-6-carboxylic acid]
% Activation [1]: 247.8% | EC50 [1]: 1.1 µM | % Activation [2]: 80.69% | EC50 [2]: 1.53 µM

CC(C)(C)c1nn(C2CCCC2)c2nc(C(=O)O)cc(-c3cnc(N4CCOCC4)nc3)c12 [compound 100, 3-tert-butyl-1-cyclopentyl-4-[2-(morpholin-4-yl)pyrimidin-5-yl]-1H-pyrazolo[3,4-b]pyridine-6-carboxylic acid]
% Activation [1]: 310% | EC50 [1]: 0.457 µM | % Activation [2]: 115.7% | EC50 [2]: 0.981 µM

Cc1nn(-c2cccc(F)c2)c2nc(C(=O)O)cc(-c3ccc(N4CCOCC4)nc3)c12 [compound 101, 1-(3-fluorophenyl)-3-methyl-4[6-(morpholin-4-yl)pyridin-3-yl]-1H-pyrazolo[3,4-b]pyridine-6-carboxylic acid]
% Activation [1]: 331.65% | EC50 [1]: 0.999 µM | % Activation [2]: 143.75% | EC50 [2]: 1.61 µM

Cc1nn(-c2cccc(C(F)(F)F)c2)c2nc(C(=O)O)cc(-c3ccc(N4CCOCC4)nc3)c12 [compound 102, 3-methyl-4-[6-(morpholin-4-yl)pyridin-3-yl]-1-[3-(trifluoromethyl)phenyl]-1H-pyrazolo[3,4-b]pyridine-6-carboxylic acid]
% Activation [1]: 384% | EC50 [1]: 0.949 µM | % Activation [2]: 153% | EC50 [2]: 1.04 µM

CC(C)(C)OC(=O)N1CCCC1c1nn(-c2ccccc2)c2nc(C(=O)O)cc(-c3ccc(N4CCOCC4)nc3)c12 (stereo not drawn) [compound 103, 3-[1-(tert-butoxycarbonyl)pyrrolidin-2-yl]-4-[6-(morpholin-4-yl)pyridin-3-yl]-1-phenyl-1H-pyrazolo[3,4-b]pyridine-6-carboxylic acid]
% Activation [1]: 302% | EC50 [1]: 0.694 µM | % Activation [2]: 115.65% | EC50 [2]: 0.703 µM

Cc1nn(-c2ccc(F)cc2F)c2nc(C(=O)O)cc(-c3ccc(N4CCOCC4)nc3)c12 [compound 104, 1-(2,4-difluorophenyl)-3-methyl-4-[6-(morpholin-4-yl)pyridin-3-yl]-1H-pyrazolo[3,4-b]pyridine-6-carboxylic acid]
% Activation [1]: 308.55% | EC50 [1]: 1.01 µM | % Activation [2]: 130.4% | EC50 [2]: 1.24 µM

Cc1nn(-c2ccc(F)cc2F)c2nc(C(=O)O)cc(-c3ccc(N4CCOCC4)cc3)c12 [compound 105, 1-(2,4-difluorophenyl)-3-methyl-4-[4-(morpholin-4-yl)phenyl]-1H-pyrazolo[3,4-b]pyridine-6-carboxylic acid]
% Activation [1]: 383.25% | EC50 [1]: 0.879 µM | % Activation [2]: 179.05% | EC50 [2]: 0.949 µM

Cc1nn(C2CCCC2)c2nc(C(=O)O)cc(-c3ccc(N4CCOCC4)nc3)c12 [compound 106, 1-cyclopentyl-3-methyl-4[6-(morpholin-4-yl)pyridin-3-yl]-1H-pyrazolo[3,4-b]pyridine-6-carboxylic acid]
% Activation [1]: 237.45% | EC50 [1]: 2.62 µM | % Activation [2]: 73% | EC50 [2]: 3.34 µM

Cc1nn(-c2ccccc2)c2nc(C(=O)O)cc(-c3ccc(N4CCN(CCO)CC4)cc3)c12 [compound 107]
% Activation [1]: 164.5% | EC50 [1]: 3.34 µM | % Activation [2]: 20.98% | EC50 [2]: > 10 µM

Cc1nn(-c2ccccc2)c2nc(C(=O)O)cc(-c3ccc(N4CCC(F)(F)CC4)cc3)c12 [compound 108, 4-[4-(4,4-difluoropiperidin-1-yl)phenyl]-3-methyl-1-phenyl-1H-pyrazolo[3,4-b]pyridine-6-carboxylic acid]
% Activation [1]: 329.7% | EC50 [1]: 0.752 µM | % Activation [2]: 145.5% | EC50 [2]: 0.904 µM

Cc1nn(-c2ccccc2)c2nc(C(=O)O)cc(-c3ccc(N4CCC(F)(F)C4)cc3)c12 [compound 111, 4-[4-(3,3-difluoropyrrolidin-1-yl)phenyl]-3-methyl-1-phenyl-1H-pyrazolo[3,4-b]pyridine-6-carboxylic acid]
% Activation [1]: 299.8% | EC50 [1]: 0.424 µM | % Activation [2]: 110.34% | EC50 [2]: 0.459 µM
